Reference: patent publication US8647828B2, “Intracellular targeting of molecules via syndecan-4” (Szilak Laboratories Bioinformatics & Molecule-Design Ltd., priority 2007, dated 2014)
Like-named read-outs stand apart in the source and are kept apart here.

Test system: nucleus of the cell
Assay type: cell-based
Conditions: peptide fused to GFP reporter

Row | Substance | localization of GFP reporter chimera in the cell | localization of GFP reporter chimera in the cell (listed as GFP-Ser179Glu mutant chimera)
1 | SEQ ID NO: 2 (MYRMKKKDEGEYDLGKKPIYKKAPTNEFYA; from the cytoplasmic domain of syndecan-4 position Ser179 mutated into Glu) | accumulation of the reporter was detected in the nuclei | nuclear accumulation
2 | MYRMKKKDEGSYDL (MYRMKKKDEGSYDLGKKPIYKKAPTNEFYA; from the cytoplasmic domain of syndecan-4 Ser11 of the sequence equals position Ser179 of the full length protein) [SEQ ID NO: 1] | homogenously dispersed in the cells | 
